Each structure is given as a SMILES string. Like-named read-outs stand apart in the source and are kept apart here.

In assay [1] the target is T1, HCV NS3/4A protease complex, BMS strain (UniProt P27958, species not given/STRAIN_BMS).
T1 construct: other: BMS strain; said of H77 and J4L6S; fused on or other part: A three-lysine solubilising tail at the C-terminus of NS4A; A His tag is implied by the pET21b vector and Ni-NTA purification; Both are printed for the H77 and J4L6S constructs and apply to BMS by inference
The assay is described as follows: FRET peptide assay to monitor HCV NS3/4A proteolytic activity (BMS strain). Format: biochemical, Hepatitis C virus (genotype 1a). Conditions: read-out: IC50 against the NS3/4A BMS strain in the enzyme assay; BMS strain. Put shortly: (§1)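 Inhibition measured by real-time fluorescence increase as the protease cleaves RET S1 FRET depsipeptide (2 μM final). Enzyme: >90% pure BMS-strain (1a) NS3/4A at 2-3 nM final, or 300 pM with 50 μg/ml BSA for potent compounds. Buffer: 50 mM HEPES pH 7.5, 0.15 M NaCl, 0.1% Triton, 15% glycerol, 10 mM βME.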
T1 sequence (P27958 1027-1657, change not shown, one chain of several): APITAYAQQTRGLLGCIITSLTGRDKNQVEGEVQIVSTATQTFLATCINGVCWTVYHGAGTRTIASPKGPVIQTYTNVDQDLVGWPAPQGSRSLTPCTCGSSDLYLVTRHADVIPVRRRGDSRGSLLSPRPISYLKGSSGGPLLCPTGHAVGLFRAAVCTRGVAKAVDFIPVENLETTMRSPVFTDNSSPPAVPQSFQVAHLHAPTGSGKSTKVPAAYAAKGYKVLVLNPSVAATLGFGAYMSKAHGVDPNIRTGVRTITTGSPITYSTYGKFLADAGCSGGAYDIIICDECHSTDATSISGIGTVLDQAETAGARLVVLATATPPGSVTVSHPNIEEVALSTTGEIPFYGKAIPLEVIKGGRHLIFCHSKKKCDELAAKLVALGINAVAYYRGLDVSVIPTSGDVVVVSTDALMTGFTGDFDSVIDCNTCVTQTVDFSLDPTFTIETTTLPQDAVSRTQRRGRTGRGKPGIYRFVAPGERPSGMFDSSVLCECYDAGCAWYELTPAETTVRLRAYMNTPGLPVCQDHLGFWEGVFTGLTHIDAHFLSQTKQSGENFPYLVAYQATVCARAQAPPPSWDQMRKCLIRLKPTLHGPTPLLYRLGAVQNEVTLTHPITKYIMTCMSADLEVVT

Assay [2] concerns the target T2, HCV NS3/4A protease complex, BMS strain (UniProt P27958, species not given/STRAIN_BMS).
T2 construct: other: NS3/4A BMS strain; activity range class; numeric values, unit not given; said of H77 and J4L6S; fused on or other part: A three-lysine solubilising tail at the C-terminus of NS4A; A His tag is implied by the pET21b vector and Ni-NTA purification; Both are printed for the H77 and J4L6S constructs and apply to BMS by inference
The description is as above. Format: biochemical, Hepatitis C virus (genotype 1a). Conditions: read-out: HCV Protease (IC50); NS3/4A BMS strain; activity range class. Put shortly:
as §1
T2 sequence (P27958 1027-1657, change not shown, one chain of several): as above

For `C=C[C@@H]1C[C@]1(NC(=O)[C@@H]1C[C@@H](Oc2nc(N(C)C)cc3cc(OC)ccc23)CN1C(=O)C(Nc1cc(C)cc(C)n1)C(C)(C)C)C(=O)NS(=O)(=O)C1CC1` (single isomer, unassigned) [Compound 18], the IC50 is 3.4 nM in assay [1] and 0.6 to 20 nM in assay [2].

The record behind these values is patent US7772180B2, “Hepatitis C virus inhibitors” (Bristol-Myers Squibb Company, priority 2006, dated 2010).
